The target of data set [1] is T1, recombinant full-length human BTK kinase (Homo sapiens, UniProt Q06187).
T1 construct: recombinant full-length human BTK kinase with a (His)6 tag; (His)6; purchased Invitrogen Corporation, Carlsbad, Calif
As to the kind of experiment: BTK kinase assay: ADP generation assay (ADP-Glo). The format is biochemical. Conditions: 60 nM BTK, MBP substrate, 60 min. How it is done:
The primary assay for compound inhibitory activity was the ADP generation assay described herein. Test compounds were diluted to desired concentrations in kinase reaction buffer and briefly incubated with recombinant full-length human BTK kinase with a (His)6 tag (81.3 kDa; Invitrogen Corporation, Carlsbad, Calif.). The assay as described is based on volumes used in a standard 384 well format using solid, white-wall plates. The reaction was subsequently initiated by the addition of ATP and myelin basic protein (MBP) substrate (Millipore Corporation, Waltham, Mass.). Composition of the assay reaction mixture ([…]) was: 5% v/v DMSO, 60 nM BTK, 1.6 µM ATP, and 20 µM MBP substrate. After incubation at room temperature for 60 min, […] (Promega Corporation, Madison, Wis.) was added to each well and incubated for an additional 40 minutes. The reagent stopped the kinase reaction and depleted the unconsumed ATP. Kinase Detection reagent ([…]; Promega Corporation) was then added to each well. The Kinase Detection reagent comprises reagents to convert ADP to ATP and provide luciferase and luciferin to detect ATP. Luminescence was measured on an EnVision microplate reader (PerkinElmer). The amount of luminescence from each reaction is directly correlated with BTK kinase activity. Percent inhibition and IC50 values were calculated by comparing enzyme activity in drug-treated wells to the appropriate controls.
(§1) IC50 values are determined using GraphPad Prism 5 software. The data were entered as an X-Y plot into the software as percent inhibition for each concentration of the drug. The concentration values of the drug were log transformed and the nonlinear regression was carried out using the “sigmoidal dose-response (variable slope)” option within the GraphPad software to model the data and calculate IC50 values. The IC50 values reported are the concentration of drug at which 50% inhibition was reached.
(§2) Activity (IC50) was determined in the BTK assays describe herein below, i.e. either the ADP generation assay and/or the time-resolved FRET assay, and the data are shown in Table III. The compound number corresponds to the compound numbers used in Table I. In the table below, “ADP Assay” refers to the assay which measures production of ADP resulting from use of ATP by the kinase; and “HTRF Assay” refers to the time resolved-FRET kinase assay described in the examples. Multiple values in a given column indicate the results of more than one assay for the given compound. Representative data of the type used to determine the IC50 values for the ADP assay in Table III are shown in FIG. 8 for compounds 3, 4, and 5.

A further data set has as its target BTK (Homo sapiens, UniProt Q06187). Kind of data set: BTK kinase assay: time resolved-FRET (HTRF) assay. The format is biochemical. Conditions: 10 nM BTK, 60 μM ATP, 1 μM substrate. The arrangement: recombinant full-length human BTK kinase with a (His)6 tag; (His)6; purchased Invitrogen Corporation, Carlsbad, Calif. How it is done: Activity of compounds was routinely confirmed using a secondary assay as described herein. The secondary assay was a time resolved-FRET kinase assay. Test compound are diluted to desired concentrations in kinase reaction buffer and briefly incubated with BTK kinase (as described above; Invitrogen). The reaction is initiated by the addition of ATP and enzyme substrate, HTRF® KinEASE™-TK Substrate-biotin (Cisbio US, Bedford, Mass.). The composition of the reaction (10 μl) was: 1% v/v DMSO, 10 nM BTK, 60 μM ATP, and 1 μM substrate. After incubation at room temperature for 60 min, the enzyme reaction is stopped by EDTA-containing buffer, which also contains europium-labeled (Eu^3+-Cryptate) anti-phosphotyrosine antibody (Cisbio) and Streptavidin-XL665 (Cisbio). The europium-labeled antibody generates a time-resolved FRET signal with the Stepavidin-XL665, which binds to the biotinylated TK substrate through the streptavidin conjugate when the substrate is phosphorylated. After one hour incubation at room temperature, fluoresence was measured with excitation of 320 nm and dual emission of 615 and 665 nm on an EnVision microplate reader. Signal is expressed in terms of a TR-FRET ratio (665:615).
as §1, §2

Data set [2] can be described thus: Microsomal stability, positive control assays. Conditions: microsomes used in the study. The data set is classed as in vitro ADME. How it is done:
Data were also obtained for the stability of Compound 3 when incubated with a microsomal preparation. Drug metabolism can occur, at least in part, in cellular microsomes, and thus the assay assesses the stability of drug to metabolic modification. The concentration of compound 3 was 1 μM in the assay system and the indicated microsomes were present at 0.5 mg total protein per milliliter. The concentration of intact drug was determined at the indicated timepoints using a LC-MS/MS assay. The enzyme activity of the microsomes used in this study were assessed using a positive control, testosterone.

A short description of the next data set: Pharmacokinetics in rat. The data set is classed as in vivo, male Sprague Dawley rats. Conditions: for AUC(0-t): read-out: AUC0-t. How it is done: The pharmacokinetic behavior of a representative disclosed compound, compound 3 (N-(3-(6-((3-morpholinophenyl)amino)-1H-pyrazolo[3,4-d]pyrimidin-4-yl)phenyl)acrylamide), which corresponds to compound 3 in Table I, was also evaluated in rat. A study was conducted using three male Sprague Dawley rats in each group as shown below:
The solution formulations were prepared as follows: (A) intravenous route (“i.v.”): a weighed quantity of 3 (10.45 mg) was transferred into a 10 mL clean glass vial. To this 0.231 mL of ethanol (4.5%) was added, vortexed and sonicated. To this 1.028 mL of propylene glycol (20%) was added, vortexed and sonicated. 1.543 mL of PEG400 (30%) was added, vortexed and sonicated. Finally 2.340 mL of water (45.5%) was added gradually, vortexed and sonicated to make a solution of 2 mg/mL concentration. The final solution was filtered using syringe filter (0.22 μm).; and (B) a weighed quantity of SC-1344 (27.43 mg) was transferred into a 10 mL clean glass vial. To this 0.304 mL of ethanol (4.5%) was added, vortexed and sonicated. To this 1.350 mL of propylene glycol (20%) was added, vortexed and sonicated. 2.024 mL of PEG400 (30%) was added, vortexed and sonicated. Finally 3.070 mL of water (45.5%) was added gradually, vortexed and sonicated to make a solution of 4 mg/mL concentration. The final solution was filtered using syringe filter (0.22 μm).
Bioanalysis was performed using fit-for-purpose LC-MS/MS method for the quantification of 3 in rat plasma samples. The calibration curve (CC) for the method consisted of nine non-zero calibration standards along with a double blank and zero standard samples. Study samples were analyzed along with two sets of quality control samples (6 QC samples; low, medium and high QC samples in triplicate). Briefly, the LC-MS/MS method used the following parameters: a) gradient mobile phase (Pump A: 0.1% Formic acid in water; Pump B: 100% methanol); b) XBridge C8, 50×4.6 mm, 3.5μ (Waters) column; c) 10 μL injection volume; d) 1.00 mL/min flow rate; e) 3.50 min run time; f) 10° C. sample cooler temperature; and g) 40° C. column oven temperature. The sample calibration curve was 1.02-1023 ng/mL, with an internal standard (telmisartan) at 0.2 μg/mL. Briefly, biological samples were prepared as follows: 50 μL of sample was mixed with 150 μL of internal standard, then mixture was vortexed for 5 min at 800 rpm, followed by centrifugation at 4000 rpm for 5 min; 150 μL of the sample supernatant was transferred into a separate tube and diluted with 75 μL of methanol: water (1:1), followed by injection into LC/MS/MS.
Plasma pharmacokinetic parameters were calculated using the non-compartmental analysis tool of Phoenix software (Version 6.3) and were determined from individual animals in each group. The area under the plasma concentration-time curve (AUC0-t and AUCinf), elimination half-life (T1/2), clearance (CL), volume of distribution (Vss) and Mean residence time (MRT) were calculated from intravenous group. The peak plasma concentration (Cmax), time to achieve peak plasma concentration (Tmax), AUC0-t and AUCinf, and absolute oral bioavailability (F) were calculated from the oral group.
The mean plasma concentration-time profiles are shown in FIGS. 10 and 11, i.e. the mean concentration values of the individual values obtained from each rat in the study group at the indicated time points.

Setting [3] is: male, Sprague Dawley, plasma, IV 5 mg/kg, solution.

“And” between values parts separate entries of the source, which are not always exact repeats. Identical values can stand only once. Like-named read-outs stand apart in the source and are kept apart here.

Sequence of BTK (Q06187 whole entry): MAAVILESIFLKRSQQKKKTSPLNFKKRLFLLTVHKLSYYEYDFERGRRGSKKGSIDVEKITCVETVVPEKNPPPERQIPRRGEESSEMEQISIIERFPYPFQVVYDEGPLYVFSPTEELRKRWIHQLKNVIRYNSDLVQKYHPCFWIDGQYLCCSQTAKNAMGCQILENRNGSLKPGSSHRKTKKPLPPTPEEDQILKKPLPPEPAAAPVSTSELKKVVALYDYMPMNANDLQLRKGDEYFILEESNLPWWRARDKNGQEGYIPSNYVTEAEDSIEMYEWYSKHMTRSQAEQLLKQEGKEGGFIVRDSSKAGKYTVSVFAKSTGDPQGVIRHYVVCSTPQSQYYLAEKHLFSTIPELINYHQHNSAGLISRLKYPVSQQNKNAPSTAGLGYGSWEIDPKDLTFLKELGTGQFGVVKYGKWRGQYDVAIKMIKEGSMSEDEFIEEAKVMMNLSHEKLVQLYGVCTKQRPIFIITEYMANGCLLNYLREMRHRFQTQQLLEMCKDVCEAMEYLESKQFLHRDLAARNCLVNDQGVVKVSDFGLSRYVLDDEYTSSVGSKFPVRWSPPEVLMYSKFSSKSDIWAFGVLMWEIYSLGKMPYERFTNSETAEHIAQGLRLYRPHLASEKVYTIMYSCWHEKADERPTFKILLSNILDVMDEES
T1 sequence (Q06187 whole entry): as above

On to `C=CC(=O)Nc1cccc(-c2nc(Nc3cccc(N4CCN(C)CC4)c3)ncc2Cl)c1` [Compound 1, N-(3-(5-chloro-2-((3-(4-methylpiperazin-1-yl)phenyl)amino)pyrimidin-4-yl)phenyl)acrylamide], for which the IC50 in data set [1] was 0.029 µM and 0.014 µM; at BTK, 0.0142 µM.

For the compound `C[C@]12CC[C@H]3[C@@H](CCC4=CC(=O)CC[C@@]43C)[C@@H]1CC[C@@H]2O` [testosterone], the “Disappearance of positive control in microsomes” value in data set [2] is “rapid disappearance”.

On to `C=CC(=O)Nc1cccc(-c2nc(Nc3cccc(N4CCOCC4)c3)nc3[nH]ncc23)c1` [SC-1344, N-(3-(6-((3-morpholinophenyl)amino)-1H-pyrazolo[3,4-d]pyrimidin-4-yl)phenyl)acrylamide], for which, in the data set “Pharmacokinetics in rat” (IV 5 mg/kg), the “Vss relative to total body water normalized to body weight (0.7 L/kg)” value is reported as “approximately 11 fold”. Besides, in the data set “Pharmacokinetics in rat” (setting [3]), the clearance was determined as 79.7 mL/min/kg, the half-life was 2.71 h and the AUC(0-t) was determined as 1060 ng·h/mL. In the data set “Pharmacokinetics in rat” (male, Sprague Dawley, plasma, IV 5 mg/kg, solution, read-out: Vss), the Vd amounted to 7.91 L/kg. The bioavailability in “Pharmacokinetics in rat” (male, Sprague Dawley, plasma, PO 20 mg/kg vs IV 5 mg/kg, AUC0-t and nominal doses used, read-out: F (absolute oral bioavailability)) was found to be 2.44%. In addition, in the data set “Pharmacokinetics in rat” (male, Sprague Dawley, plasma, PO 20 mg/kg, solution), the AUC(0-t) was 104 ng·h/mL. Moreover, the Cmax in the data set “Pharmacokinetics in rat” (male, Sprague Dawley, plasma, PO 20 mg/kg, solution, read-out: Cmax) was 23.1 ng/mL.

For the compound `C=CC(=O)Nc1cccc(-c2nc(Nc3cccc(N4CCNCC4)c3)nc3[nH]ncc23)c1` [Compound 9, N-(3-(6-((3-(piperazin-1-yl)phenyl)amino)-1H-pyrazolo[3,4-d]pyrimidin-4-yl)phenyl)acrylamide], on BTK, the IC50 came to 0.014 µM.

In the case of `C=CC(=O)Nc1cc(-c2nc(Nc3cccc(N4CCOCC4)c3)nc3[nH]nc(Cl)c23)ccc1Cl` [Compound 6, N-(2-chloro-5-(3-chloro-6-((3-morpholinophenyl)amino)-1H-pyrazolo[3,4-d]pyrimidin-4-yl)phenyl)acrylamide], the IC50 in data set [1] was ≥ 100 µM; on BTK, > 100 µM.

Turning to `C=CC(=O)Nc1cccc(-c2nc(Nc3cccc(N4CCOCC4)c3)ncc2Cl)c1` [Compound 2, N-(3-(5-chloro-2-((3-morpholinophenyl)amino)pyrimidin-4-yl)phenyl)acrylamide], in data set [1], the IC50 stood at 0.07 µM.

For the compound `C=CC(=O)Nc1cccc(-c2nc(Nc3cccc(N4CCOCC4)c3)nc3[nH]nc(Cl)c23)c1` [Compound 5, N-(3-(3-chloro-6-((3-morpholinophenyl)amino)-1H-pyrazolo[3,4-d]pyrimidin-4-yl)phenyl)acrylamide], the IC50 in data set [1] turned out to be 0.096 µM; at BTK it was 0.175 µM.

`C=CC(=O)Nc1cccc(-c2nc(Nc3cccc(N4CCNCC4)c3)ncc2Cl)c1` [Compound 10, N-(3-(5-chloro-2-((3-(piperazin-1-yl)phenyl)amino)pyrimidin-4-yl)phenyl)acrylamide]: the IC50 at BTK was found to be 0.07 µM.

With `C=CC(=O)Nc1cccc(-c2nc(Nc3cccc(N4CCN(C)CC4)c3)nc3[nH]ncc23)c1` [Compound 4, N-(3-(6-((3-(4-methylpiperazin-1-yl)phenyl)amino)-1H-pyrazolo[3,4-d]pyrimidin-4-yl)phenyl)acrylamide], the half-inhibitory concentration (IC50) in data set [1] turned out to be 0.009 µM; on BTK, 0.0091 µM.

Take `C=CC(=O)Nc1cccc(-c2nc(Nc3cccc(N4CCOCC4)c3)nc3[nH]ccc23)c1` [Compound 8, N-(3-(2-((3-morpholinophenyl)amino)-7H-pyrrolo[2,3-d]pyrimidin-4-yl)phenyl)acrylamide]: at BTK, the concentration for half-maximal inhibition (IC50) was > 10 µM.

As to `C=CC(=O)Nc1cccc(-c2nc(Nc3cccc(N4CCOCC4)c3)nc3[nH]cc(Cl)c23)c1` [Compound 7, N-(3-(5-chloro-2-((3-morpholinophenyl)amino)-7H-pyrrolo[2,3-d]pyrimidin-4-yl)phenyl)acrylamide], the concentration for half-maximal inhibition (IC50) in data set [1] came out at 0.096 µM; at BTK, 0.175 µM.
